# Experimental data published in the RepoRT retention time repository (doi:10.1021/acs.analchem.2c02893).
# Assay: RP, Thermo Scientific Acclaim RSLC 120 C18, 100 × 2.1 mm, 2.2 µm, 30 °C, 0.2 mL/min, estimated dead time 1.1 min; A: 90% water + 10% methanol + 0.01% formic acid + 5 mM ammonium formate, pH 3.61; B: methanol + 0.01% formic acid + 5 mM ammonium formate, pH 3.61; gradient (min/%B) 0/1 1/1 2/39 13/99.9 15/99.9 15.1/1 20.1/1
# Details: stereoisomer not certain
row,Structure (SMILES),LC retention time [min]
1,CN1C(=O)C(O)CC1c1cccnc1 (stereo not drawn) [Cotinine-Hydroxy],3.13
2,CCOC(=O)c1ncn2c1CN(C)C(=O)c1cc(F)ccc1-2 [Flumazenil],6.04
3,CCCCCn1cc(C(=O)c2cccc3ccccc23)cc1-c1ccccc1C [JWH-370],13.4
4,CCCc1nn(C)c2c(=O)[nH]c(-c3cc(C(=O)CN4CCN(CC)C(=O)C4)ccc3OCC)nc12 [Oxohongdenafil],9.09
5,CCCCC1=NC2(CCCC2)C(=O)N1Cc1ccc(-c2ccccc2-c2nn[nH]n2)cc1 [Irbesartan],9.44
6,Nc1ccc2c(c1)C(c1ccccc1Cl)=NCC(=O)N2 [Clonazepam- 7-Amino],4.86
7,OC(CCN1CCCCC1)(c1ccccc1)C1CCCCC1 (stereo not drawn) [Trihexyphenidyl. Benzhexol],7.86
8,CC(C)([CH2][Sn+]([CH2]C(C)(C)c1ccccc1)[CH2]C(C)(C)c1ccccc1)c1ccccc1 [Fenbutatin Oxide Fragm 519],14.5
9,O=c1n(CCCN2CCN(c3cccc(Cl)c3)CC2)nc2ccccn12 [Trazodone],6.48
10,Cc1nnc(-c2ccccc2)c(=O)[nH]1 [Metamitron-desamino],5.29
11,CCCC(C)C(=O)Nc1ccc(C)c(Cl)c1 (stereo not drawn) [Pentanochlor],10.6
12,CNC(=O)Oc1cccc2ccccc12 [Carbaryl],7.46
13,Oc1ccc2c3c1OC1C(O)CCC4(O)C(C2)N(CC2CCC2)CCC314 (stereo not drawn) [Nalbuphine],4.17
14,CCCCCn1nc(C(=O)Nc2cccc3ccccc23)c2ccccc21 [MN-18],13
15,CC(C)(C)C(NC(=O)c1nn(Cc2ccc(F)cc2)c2ccccc12)C(N)=O (stereo not drawn) [ADB-FUBINACA],10.3
16,CNC(=O)C(=NOC)c1ccccc1COc1cc(C)ccc1C [Dimoxystrobin],10.7
17,CSc1nc2ccccc2s1 [Benzothiazole- 2-Me-S],9.79
18,CNC(=O)Nc1ccc(Cl)c(Cl)c1 [3-4-(dichlorophenyl)-3-methyl urea],8.51
19,COCCOc1c(OC)cc(Cc2cnc(N)nc2N)cc1OC [Tetroxoprim],4.24
20,CC(Oc1ccc(Oc2cnc3cc(Cl)ccc3n2)cc1)C(=O)O (stereo not drawn) [Quizalofop],9.62
21,COC(=O)C(NC(=O)c1nn(Cc2ccc(F)cc2)c2ccccc12)C(C)C (stereo not drawn) [FUB-AMB],10.8

row,Structure (SMILES),LC retention time [min]
1,CC(C)NCC(O)c1ccccc1Cl (stereo not drawn) [Clorprenaline],4.76
2,CN1CCN(C(c2ccccc2)c2ccccc2)CC1 [Cyclizine],6.94
3,CC(NC(=O)C(N)CC(=O)O)C(=O)NC1C(C)(C)SC1(C)C (stereo not drawn) [Alitame],6.09
4,OCCN(CCO)c1nc(N2CCCCC2)c2nc(N(CCO)CCO)nc(N3CCCCC3)c2n1 [Dipyridamole],9.36
5,COC(=O)c1ccccc1S(=O)(=O)NC(=O)N(C)c1nc(C)nc(OC)n1 [Tribenuron-methyl],7.94
6,CCCNC(C)C(=O)Nc1ccccc1C (stereo not drawn) [Prilocaine],4.69
7,COC(=O)C1=C(C)NC(C)=C(C(=O)OC(C)C)C1c1cccc2nonc12 (stereo not drawn) [Isradipine],9.61
8,CC12CCC(=O)C=C1CCC1C2C(=O)CC2(C)C1CCC2(O)C(=O)CO (stereo not drawn) [Cortisone E  (4-Pregnene-17.21-diol-3.11.20-trione)],7.41
9,CCC(CC)Nc1c([N+](=O)[O-])cc(C)c(C)c1[N+](=O)[O-] [Pendimethalin],12.8
10,CCN(CC)C(=O)C1C=C2c3cccc4[nH]cc(c34)CC2NC1 (stereo not drawn) [LSD-Nor],5.56
11,COc1ccc(OC)c(CCN)c1 [2C-H],4.43
12,Cc1cccc(Nc2ccncc2S(=O)(=O)NC(=O)NC(C)C)c1 [Torasemide],6.67
13,CN(C)CCc1ccc(O)cc1 [Hordenine],2.28
14,NC(=O)C(CCN1CCCCC1)(c1ccccc1)c1ccccc1 [Fenpipramide],5.19
15,OCC(O)CN1CCN(c2ccccc2)CC1 (stereo not drawn) [Dropropizine],3.79
16,CC(N)Cc1cccc(F)c1 (stereo not drawn) [Amphetamine (3-F-)],4.39
17,CC12CCC3c4ccc(O)cc4CCC3C1CCC2=O (stereo not drawn) [E1 (1-3-5(10)-estratrien-3-ol-17-one estrone)],9.56
18,CC(C)N(Cc1ccccc1)C(=O)C(C)(C)C [Tebutame],10.2
19,NC(Cc1ccc(N(CCCl)CCCl)cc1)C(=O)O (stereo not drawn) [Melphalan],7.01
20,CCOC(=O)CC(SP(=O)(OC)OC)C(=O)OCC (stereo not drawn) [Malaoxon],7.01
21,Cc1c(N(C)CS(=O)(=O)O)c(=O)n(-c2ccccc2)n1C [Dipyron (Metamizol)],4.49

row,Structure (SMILES),LC retention time [min]
1,CCc1cc2c(s1)-n1cnnc1CN=C2c1ccccc1Cl [Metizolam (Desmethyletizolam)],7.93
2,CN1CCCCC1Cn1cc(C(=O)C23CC4CC(CC(C4)C2)C3)c2ccccc21 (stereo not drawn) [AM-1248],9.94
3,CCC(NC)C(=O)c1ccc(C)cc1 (stereo not drawn) [Buphedrone-4-Methyl],5.04
4,CC1(OC(=O)C=Cc2ccccc2)CC(O)C2(O)C=COC(OC3OC(CO)C(O)C(O)C3O)C12 (stereo not drawn) [Harpagoside],8.25
5,CC(C)N(CCc1c[nH]c2cccc(O)c12)C(C)C [DIPT- 4-OH],4.34
6,N#Cc1nn(-c2c(Cl)cc(C(F)(F)F)cc2Cl)c(N)c1S(=O)(=O)C(F)(F)F [Fipronil-sulfone],11
7,CCc1cnc(C2=NC(C)(C(C)C)C(=O)N2)c(C(=O)O)c1 (stereo not drawn) [Imazethapyr],5.6
8,COc1cc(C(=O)c2cnc(N)nc2N)cc(OC)c1OC [Trimethoprim (Impurity B)],5.49
9,COP(=S)(OC)Oc1c(Cl)cc(C)cc1Cl [Tolclofos-methyl],11.4
10,CC(C)N(CCC(C(N)=O)(c1ccccc1)c1ccccn1)C(C)C (stereo not drawn) [Disopyramide],4.74
11,CCN(CCCCOC(=O)c1ccc(OC)c(OC)c1)C(C)Cc1ccc(OC)cc1 (stereo not drawn) [Mebeverine],6.79
12,Cc1cc2c(OCC(O)CNC(C)C)cccc2[nH]1 (stereo not drawn) [Mepindolol],4.44
13,O=C(Nc1cccc(C2=NCCN2)c1)Nc1cccc(C2=NCCN2)c1 [Imidocarb],3.78
14,OCc1nnc2n1-c1ccc(Cl)cc1C(c1ccccc1Cl)=NC2 [Triazolam-1-Hydroxymethyl (alpha-Hydroxy-Triazolam)],7.65
15,Clc1ccc(C(c2ccccc2)N2CCNCC2)cc1 (stereo not drawn) [Piperazine -1[(4-chlorophenyl) phenyl methyl]],8.53
16,NC1CCc2cc3c(cc2C1)OCO3 (stereo not drawn) [MDAT],4.32
17,COC(=O)c1c(C(F)F)nc(C(F)(F)F)c(C2=NCCS2)c1CC(C)C [Thiazopyr],10.7
18,CNC(C)Cc1ccccc1F (stereo not drawn) [Amphetamine-2-F-Methyl (2-F-methamphetamine)],4.33
19,CCNc1nc(Cl)nc(NCC)n1 [Simazine],7.07
20,C=CCOc1ccccc1OCC(O)CNC(C)C (stereo not drawn) [Oxprenolol],5.66
21,CC(C)(C)C(O)C(Cc1ccc(Cl)cc1Cl)n1cncn1 (stereo not drawn) [Diclobutrazol],10.7

row,Structure (SMILES),LC retention time [min]
1,CC(=O)CC(c1ccccc1)c1c(O)c2ccccc2oc1=O (stereo not drawn) [Warfarin],9.35
2,Cc1cc(C(C)(C)C)c(O)c(C)c1CC1=NCCN1 [Oxymetazoline],6.99
3,CN(C)C(=O)Nc1ccc(-n2nc(C(C)(C)C)oc2=O)c(Cl)c1 [Dimefuron],8.76
4,CCOC(=O)C1=NN(c2ccc(Cl)cc2Cl)C(C)(C(=O)OCC)C1 (stereo not drawn) [Mefenpyr-diethyl],11.1
5,CC12CCC3c4ccc(O)cc4CCC3C1CC(O)C2O (stereo not drawn) [E3  estriol (1-3-5(10)-estratrien-3 16-17-triol)],6.83
6,COP(=O)(OC)OC(=CCl)c1cc(Cl)c(Cl)cc1Cl [Tetrachlorvinphos (Stirofos)],10.6
7,CCCCc1c(C)nc(NCC)nc1OS(=O)(=O)N(C)C [Bupirimate],10.5
8,CCCCCn1cc(C(=O)c2cccc3ccccc23)c2ccccc21 [JWH-018],12.4
9,CC(C)(N)Cc1ccccc1 [Phentermine],4.64
10,O=C(CCCN1CCC(O)(c2ccc(Cl)cc2)CC1)c1ccc(F)cc1 [Haloperidol],7.18
11,CNC(=O)Oc1cc(C)c(C)c(C)c1.CNC(=O)Oc1cc(C)cc(C)c1C [Trimethacarb (2.3.5-)],8.4
12,CON=C(C(=O)NC1C(=O)N2C(C(=O)O)=C(CSC(=O)c3ccco3)CSC12)c1csc(N)n1 (stereo not drawn) [Ceftiofur],5.44
13,O=C(NC(=O)c1c(F)cccc1F)Nc1ccc(OC(F)(F)C(F)OC(F)(F)F)c(Cl)c1 (stereo not drawn) [Novaluron],11.9
14,CC(NCCc1ccc(O)cc1)C(O)c1ccc(O)cc1 (stereo not drawn) [Ritodrine],3.79
15,COCC1CN=C(c2ccccc2Cl)c2cc(Br)ccc2N1C (stereo not drawn) [Metaclazepam],11.6
16,CCOC(=O)NCCOc1ccc(Oc2ccccc2)cc1 [Fenoxycarb],10.6
17,CC(C)(C)NCC(O)COc1ccc(NC(=O)NC2CCCCC2)cc1 (stereo not drawn) [Talinolol],6.58
18,OCCOCCN1CCN(C2=Nc3ccccc3Sc3ccccc32)CC1 [Quetiapine],7.26
19,CNC(=O)Oc1cc(C)c(S(C)(=O)=O)c(C)c1 [Methiocarb-sulfone],5.28
20,"O=c1[nH]sc2ccccc12 [1,2-Benzisothiazolinone]",5.14
